≈ marks a conversion by molar mass, not a printed value. Where two headings read alike, the source gives them in different places.
Key:
MCF7 cells = assay: CellTiter-Glo Luminescent Cell Viability Assay on ER-positive breast cancer MCF-7 cells; format: cell-based, human; details: average ± standard deviation when tested more than 3 times, read-out: Inhibition of the viability of breast cancer cells, IC50
From the text: B: In Vitro CellTiter-Glo® Luminescent Cell Viability Assay on ER-Positive Breast Cancer MCF-7 Cells:
MCF7 cells are breast cancer cell lines that highly express ER-66, ER-46 and ER-36. (Relevance of breast cancer cell lines as models for breast tumours: an update. Marc Lacroix, Guy Leclercq, Breast Cancer Research and Treatment (2004) 83, 249-289; Wang et al., Proc. Natl. Acad. Sci. U.S.A. 103:9063-9068 (2006)). MCF7 cells were obtained from ATCC and maintained in Dulbecco's Modified Eagles Medium (DMEM) and 10% fetal calf serum at 37° C., under 5% CO2 atmosphere. The cells were seeded on 96-well plate at a density of 6×10^3 cells per well. MCF7 cells were treated with a test compound dissolved in DMSO at the concentrations of zero, 0.3 μM, 0.5 μM, 1 μM, 2 μM, 3 μM, 5 μM, 10 μM, 20 μM, 30 μM, 50 μM and 100 μM for 72 hours. Treated cells were examined by CellTiter-Glo® Luminescent Cell Viability Assay Kit (Promega), and luminescence values were recorded with Envision.

Hep3B2.1-7 cells = assay: MTT assay, in vitro growth of liver cancer Hep3B2.1-7 cells; format: cell-based; details: 72 hours; for IC50: read-out: Inhibition on liver cancer cells, IC50
Protocol: The liver cancer Hep3B2.1-7 cells were obtained from ATCC. Cells were incubated in 1640 culture medium with 5% fetal calf serum and 100 U/ml double-antibody in a cell incubator at 37° C., 5% CO2 atmosphere and passaged via conventional methods. The sample was dissolved in DMSO, formulated into 50 mg/ml stocking solution, and stored at 4° C. The test solutions at 50, 25, 12.5 and 6.25 μg/ml were formulated with culture medium immediately before use.
The adherent cells were digested with cell digestive solution, and then the exfoliated cells were collected and counted. The cell suspension was formulated with 1640 culture medium containing 5% fetal calf serum (5.0×10^4/ml). The cell suspension was seeded on 96-well plate with 100 μl/well, and maintained in a cell incubator at 37° C., 5% CO2 atmosphere for 24 hours. After that, the compounds at various concentrations were added, where solvent was taken as negative control and Taxol as positive control. 10 μl MTT (5 mg/ml) was added after 72 hours. The supernatant was removed after cultivation for 3 hours more, 150 μl DMSO was added and the formazan was dissolved on shaking. OD values were measured at 570 nm after homogeneous mixing, and inhibition rate and IC50 values were calculated based on the mean of OD values from 3 wells.

MDA-MB-231 cells = assay: CellTiter-Glo Luminescent Cell Viability Assay on ER-negative breast cancer MDA-MB-231 cells; format: cell-based; details: average ± standard deviation when tested more than 3 times, read-out: Inhibition of the viability of breast cancer cells, IC50
Protocol: A: In Vitro CellTiter-Glo® Luminescent Cell Viability Assay on ER-Negative Breast Cancer MDA-MB-231 Cells:
MDA-MB-231 cells were maintained at 37° C., under 5% CO2 atmosphere in DMEM containing 10% fetal calf serum. The cells were seeded on 96-well plate at a density of 6×10^3 cells per well. MDA-MB-231 cells were treated with a test compound dissolved in DMSO at the concentrations of zero, 0.3 μM, 0.5 μM, 1 μM, 2 μM, 3 μM, 5 μM, 10 μM, 20 μM, 30 μM, 50 μM and 100 μM for 72 hours. Treated cells were examined by CellTiter-Glo® Luminescent Cell Viability Assay Kit (Promega), and luminescence values were recorded with Envision.

| Molecule | IC50 (MCF7 cells; 72 hours) [µM] | Inhibition on liver cancer cells, IC50 (Hep3B2.1-7 cells) [µg/mL] | IC50 (MDA-MB-231 cells; 72 hours) [µM] | IC50 (Hep3B2.1-7 cells) [µg/mL] | IC50 (MCF7 cells; Homo sapiens, MCF7, 72 h) [µM] | IC50 (MDA-MB-231 cells; Homo sapiens, MDA-MB-231, 72 h) [µM] |
| --- | --- | --- | --- | --- | --- | --- |
| COc1c(-c2ccc(C#N)cc2)oc2c(CC=C(C)C)c(O)c(CC=C(C)C)c(O)c2c1=O [Compound 57, 4-[5,7-dihydroxy-3-methoxy-6,8-di(3-methyl-2-butenyl)-4-oxo-4H-benzopyran-2-yl]benzonitrile] |  |  |  | 21 (≈ 47.2 µM) | 4.84 | 2.85 |
| COc1c(C2CCOC2)oc2c(CC=C(C)C)c(O)c(CC=C(C)C)c(O)c2c1=O (stereo not shown) [Compound 38, 2-(terthydrofuran-3-yl)-5,7-dihydroxy-3-methoxy-6,8-di(3-methyl-2-buten-1-yl)-4H-benzopyran-4-one] | 22.9 |  | > 100 |  |  |  |
| COc1c(-c2ccoc2)oc2c(CC=C(C)C)c(O)c(CC=C(C)C)c(O)c2c1=O [Compound 42, 2-(furan-3-yl)-5,7-dihydroxy-3-methoxy-6,8-di(3-methyl-2-buten-1-yl)-4H-benzopyran-4-one] |  |  |  |  | 12.4 | 28.7 |
| COc1c(-c2ccsc2)oc2c(CC=C(C)C)c(O)c(CC=C(C)C)c(O)c2c1=O [Compound 40, 2-(thiophen-3-yl)-5,7-dihydroxy-3-methoxy-6,8-di(3-methyl-2-buten-1-yl)-4H-benzopyran-4-one] |  |  |  |  | 23.5 | 24 |
| COc1c(-c2ccc(Cl)c(Cl)c2)oc2c(CC=C(C)C)c(O)c(CC=C(C)C)c(O)c2c1=O [Compound 12, 2-(3,4-dichlorophenyl)-5,7-dihydroxy-3-methoxy-6,8-di(3-methyl-2-butylene-1-yl)-4H-benzopyran-4-one] | > 100 |  | 16.1 |  |  |  |
| COc1c(-c2ccc(C)cc2)oc2c(CC=C(C)C)c(O)c(CC=C(C)C)c(O)c2c1=O [Compound 16, 2-(4-methylphenyl)-5,7-dihydroxy-3-methoxy-6,8-di(3-methyl-2-butylene-1-yl)-4H-benzopyran-4-one] | > 100 |  | 16.3 |  |  |  |
| COc1c(C2CC2)oc2c(CC=C(C)C)c(O)c(CC=C(C)C)c(O)c2c1=O [Compound 34, 2-cyclopropyl-5,7-dihydroxy-3-methoxy-6,8-di(3-methyl-2-buten-1-yl)-4H-benzopyran-4-one] |  |  |  |  | > 100 | 25.6 |
| COc1c(-c2ncccn2)oc2c(CC=C(C)C)c(O)c(CC=C(C)C)c(O)c2c1=O [Compound 33, 2-(pyrimidin-2-yl)-5,7-dihydroxy-3-methoxy-6,8-di(3-methyl-2-buten-1-yl)-4H-benzopyran-4-one] |  |  |  |  | > 100 | 22.3 |
| COc1c(-c2cncnc2)oc2c(CC=C(C)C)c(O)c(CC=C(C)C)c(O)c2c1=O [Compound 32, 2-(pyrimidin-5-yl)-5,7-dihydroxy-3-methoxy-6,8-di(3-methyl-2-buten-1-yl)-4H-benzopyran-4-one] |  |  |  |  | 34.4 | 20 |
| COc1c(-c2ccc(Cl)c(C)c2)oc2c(CC=C(C)C)c(O)c(CC=C(C)C)c(O)c2c1=O [Compound 11, 2-(4-chloro-3-methylphenyl)-5,7-dihydroxy-3-methoxy-6,8-di(3-methyl-2-buten-1-yl)-4H-benzopyran-4-one] |  |  |  |  | 15.5 | 13.8 |
| CCOc1ccc(-c2oc3c(CC=C(C)C)c(O)c(CC=C(C)C)c(O)c3c(=O)c2OC)cc1 [Compound 24, 2-(4-ethoxyphenyl)-5,7-dihydroxy-3-methoxy-6,8-di(3-methyl-2-buten-1-yl)-4H-benzopyran-4-one] |  |  |  |  | > 100 | > 100 |
| COc1c(-c2cscn2)oc2c(CC=C(C)C)c(O)c(CC=C(C)C)c(O)c2c1=O [Compound 43, 2-(thiazol-4-yl)-5,7-dihydroxy-3-methoxy-6,8-di(3-methyl-2-buten-1-yl)-4H-benzopyran-4-one] |  |  |  |  | 25.7 | > 100 |
| COc1c(C2CCC2)oc2c(CC=C(C)C)c(O)c(CC=C(C)C)c(O)c2c1=O [Compound 35, 2-cyclobutyl-5,7-dihydroxy-3-methoxy-6,8-di(3-methyl-2-buten-1-yl)-4H-benzopyran-4-one] |  |  |  |  | 88.1 | > 100 |
| COc1c(-c2cc3ccccc3o2)oc2c(CC=C(C)C)c(O)c(CC=C(C)C)c(O)c2c1=O [Compound 50, 2-(benzofuran-2-yl)-5,7-dihydroxy-3-methoxy-6,8-di(3-methyl-2-buten-1-yl)-4H-benzopyran-4-one] |  |  |  |  | 20.4 | 13.6 |

Other lines, results leading:

| IC50 (MCF7 cells; 72 hours) [µM] | Inhibition on liver cancer cells, IC50 (Hep3B2.1-7 cells) [µg/mL] | IC50 (MDA-MB-231 cells; 72 hours) [µM] | IC50 (Hep3B2.1-7 cells) [µg/mL] | IC50 (MCF7 cells; Homo sapiens, MCF7, 72 h) [µM] | IC50 (MDA-MB-231 cells; Homo sapiens, MDA-MB-231, 72 h) [µM] | Molecule |
| --- | --- | --- | --- | --- | --- | --- |
| 3.52 | 0.04 | 3.28 |  |  |  | 2-(4-fluoromethoxyphenyl)-5,7-dihydroxy-3-methoxy-6,8-di(3-methyl-2-buten-1-yl)-4H-benzopyran-4-one [Compound 61] |
|  |  |  | 42.8 (≈ 50.1 µM) |  |  | CC(=O)O[C@H]1C(=O)[C@@]2(C)[C@H]([C@H](OC(=O)c3ccccc3)[C@]3(O)C[C@H](OC(=O)[C@H](O)[C@@H](NC(=O)c4ccccc4)c4ccccc4)C(C)=C1C3(C)C)[C@]1(OC(C)=O)CO[C@@H]1C[C@@H]2O [Taxol, reference compound] |
| 3.91 | 0.24 | 2.86 |  |  |  | COc1c(-c2ccc(C(C)(C)O)cc2)oc2c(CC=C(C)C)c(O)c(CC=C(C)C)c(O)c2c1=O [Compound 66] |
|  |  |  | 9.95 (≈ 21.5 µM) | 3.02 | 6.36 | COc1c(-c2ccc(C(N)=O)cc2)oc2c(CC=C(C)C)c(O)c(CC=C(C)C)c(O)c2c1=O [Compound 60, 4-[5,7-dihydroxy-3-methoxy-6,8-di(3-methyl-2-buten-1-yl)-4-oxo-4H-benzopyran-2-yl]benzamide] |
|  |  |  |  | 40.6 | 2.45 | COc1c(-c2ccc(S(C)(=O)=O)cc2)oc2c(CC=C(C)C)c(O)c(CC=C(C)C)c(O)c2c1=O [Compound 64, 2-(4-methanesulfonylphenyl)5,7-dihydroxy-3-methoxy-6,8-di(3-methyl-2-buten-1-yl)-4H-benzopyran-4-one] |
|  |  |  |  | > 100 | 16.1 | CC(C)=CCc1c(O)c(CC=C(C)C)c2oc(-c3ccc(Cl)c(Cl)c3)cc(=O)c2c1O [Compound 88, 2-(3,4-dichlorophenyl)-5,7-dihydroxy-6,8-di(3-methyl-2-buten-1-yl)-4H-benzopyran-4-one] |
|  |  |  |  | > 100 | 3.63 | COc1c(-c2ccc(OC(F)(F)F)cc2)oc2c(CC=C(C)C)c(O)c(CC=C(C)C)c(O)c2c1=O [Compound 58, 2-(4-trifluoromethoxyphenyl)-5,7-dihydroxy-3-methoxy-6,8-di(3-methyl-2-buten-1-yl)-4H-benzopyran-4-one] |
| 8.89 |  | 23.8 |  |  |  | COc1c(-c2cncs2)oc2c(CC=C(C)C)c(O)c(CC=C(C)C)c(O)c2c1=O [Compound 68, 2-(thiazol-5-yl)-5,7-dihydroxy-3-methoxy-6,8-di(3-methyl-2-buten-1-yl)-4H-benzopyran-4-one] |
|  |  |  |  | > 100 | > 100 | COc1c(CC=C(C)C)cc2c(=O)c(OC)c(-c3ccc(F)c(F)c3)oc2c1CC=C(C)C [Compound 81B, 2-(3,4-difluorophenyl)-3,7-dimethoxy-6,8-di(3-methyl-2-buten-1-yl)-4H-benzopyran-4-one] |
|  |  |  |  | 15.6 | 27.5 | CC(C)=CCc1c(O)c(CC=C(C)C)c2oc(-c3ccc(F)c(F)c3)c(C)c(=O)c2c1O [Compound 93, 2-(3,4-difluorophenyl)-3-methyl-5,7-dihydroxy-6,8-di(3-methyl-2-buten-1-yl)-4H-benzopyran-4-one] |
| 47.2 ± 22.5 |  | 13.8 ± 2.1 |  |  |  | 2-(benzo[d][1,3]dioxo-5-yl)-5,7-dihydroxy-3-methoxy-6,8-di(3-methyl-2-buten-1-yl)-4H-benzopyran-4-one [Compound 21] |
|  |  |  |  | > 100 | > 100 | CC(C)=CCc1c(O)c(CC=C(C)C)c2oc(-c3ccc(Cl)c(F)c3)cc(=O)c2c1O [Compound 86, 2-(3-fluoro-4-chlorophenyl)-5,7-dihydroxy-6,8-di(3-methyl-2-buten-1-yl)-4H-benzopyran-4-one] |

From US9090583B2, “Benzopyrone estrogen receptor regulator” (BEIJING SHENOGEN PHARMA GROUP LTD., priority 2010, dated 2015)
